Measurements reported in paper PMC7224213, “A novel peroxidase from Ziziphus jujuba fruit: purification, thermodynamics and biochemical characterization properties” (Scientific Reports, 2020).

Test system: T1, Z. jujuba peroxidase (POD IIA)
T1 construct: 56 kDa by gel filtration and SDS-PAGE (single band); EC 1.11.1.7
Assay: absorbance at […] nm, Lineweaver-Burk
Format: biochemical, Ziziphus jujuba
Conditions: co-substrate H2O2; 0.05 M sodium acetate pH 5.5; 50 °C; guaiacol 20-90 mM; text prints 23.5 with the units of Km and Vmax interchanged (unit/ml)

- Km: 23.5 mM
SMILES: COc1ccccc1O [guaiacol]
